Laboratory results as given in PubChem BioAssay (NCI).
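Briefly, cells in 96-well plates were exposed to five compound concentrations for 48 h, and endpoints were estimated by linear interpolation. GI50 = concentration required for 50% inhibition of growth. TGI is the concentration that stops growth completely.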

Assays:
Assay in all cases: growth of human tumour cells (NCI), 48 h
MOLT-4 leukemia = tested on: MOLT-4 leukemia
HS 578T breast = tested on: HS 578T breast
SF-268 CNS = tested on: SF-268 CNS
COLO 205 colon = tested on: COLO 205 colon
NCI/ADR-RES ovarian = tested on: NCI/ADR-RES ovarian
A549 NSCLC = tested on: A549 NSCLC
SF-295 CNS = tested on: SF-295 CNS
MDA-MB-435 = tested on: MDA-MB-435
SK-MEL-5 melanoma = tested on: SK-MEL-5 melanoma
K-562 leukemia = tested on: K-562 leukemia
SF-539 CNS = tested on: SF-539 CNS
CCRF-CEM leukemia = tested on: CCRF-CEM leukemia
SW-620 colon = tested on: SW-620 colon
HOP-62 NSCLC = tested on: HOP-62 NSCLC
RXF 393 renal = tested on: RXF 393 renal
CAKI-1 renal = tested on: CAKI-1 renal
OVCAR-4 ovarian = tested on: OVCAR-4 ovarian
NCI-H522 lung = tested on: NCI-H522 lung
MCF7 breast = tested on: MCF7 breast
786-0 renal = tested on: 786-0 renal
U251 CNS = tested on: U251 CNS
MALME-3M melanoma = tested on: MALME-3M melanoma
EKVX NSCLC = tested on: EKVX NSCLC
SK-MEL-2 melanoma = tested on: SK-MEL-2 melanoma
SK-OV-3 ovarian = tested on: SK-OV-3 ovarian
SN12C renal = tested on: SN12C renal
DU-145 prostate = tested on: DU-145 prostate
UACC-257 melanoma = tested on: UACC-257 melanoma
HT29 colon = tested on: HT29 colon
ACHN renal = tested on: ACHN renal
HOP-92 NSCLC = tested on: HOP-92 NSCLC
A498 renal = tested on: A498 renal
OVCAR-8 ovarian = tested on: OVCAR-8 ovarian
SK-MEL-28 melanoma = tested on: SK-MEL-28 melanoma
KM12 colon = tested on: KM12 colon
SNB-75 CNS = tested on: SNB-75 CNS
NCI-H226 lung = tested on: NCI-H226 lung
SNB-19 CNS = tested on: SNB-19 CNS
LOX IMVI melanoma = tested on: LOX IMVI melanoma
HL-60(TB) leukemia = tested on: HL-60(TB) leukemia
M14 melanoma = tested on: M14 melanoma
HCT-15 colon = tested on: HCT-15 colon
TK-10 renal = tested on: TK-10 renal
OVCAR-5 ovarian = tested on: OVCAR-5 ovarian
PC-3 prostate = tested on: PC-3 prostate
IGROV1 ovarian = tested on: IGROV1 ovarian
NCI-H460 lung = tested on: NCI-H460 lung
UO-31 renal = tested on: UO-31 renal
HCC-2998 colon = tested on: HCC-2998 colon
HCT-116 colon = tested on: HCT-116 colon
BT-549 breast = tested on: BT-549 breast
RPMI-8226 leukemia = tested on: RPMI-8226 leukemia
UACC-62 melanoma = tested on: UACC-62 melanoma

**Q.** What does the source list for `Cc1cccc(N2CCN(C3=C(Cl)C(=O)c4ncccc4C3=O)CC2)c1`?
**A.** GI50 (MOLT-4 leukemia): 2010 nM; TGI (MOLT-4 leukemia): 5.45 µM; GI50 (HS 578T breast): 5.74 µM; TGI (HS 578T breast): 38.5 µM; GI50 (SF-268 CNS): 14.4 µM; TGI (SF-268 CNS): 32.2 µM; GI50 (COLO 205 colon): 1940 nM; TGI (COLO 205 colon): 3.79 µM; GI50 (NCI/ADR-RES ovarian): 2440 nM; TGI (NCI/ADR-RES ovarian): 7.45 µM; GI50 (A549 NSCLC): 15.7 µM; TGI (A549 NSCLC): 36 µM; GI50 (SF-295 CNS): 12.1 µM; TGI (SF-295 CNS): 25.5 µM; GI50 (MDA-MB-435): 1810 nM; TGI (MDA-MB-435): 3.35 µM; GI50 (SK-MEL-5 melanoma): 9.63 µM; TGI (SK-MEL-5 melanoma): 21.5 µM; GI50 (K-562 leukemia): 1800 nM; TGI (K-562 leukemia): 5.31 µM; GI50 (SF-539 CNS): 3.91 µM; TGI (SF-539 CNS): 15.6 µM; GI50 (CCRF-CEM leukemia): 2030 nM; TGI (CCRF-CEM leukemia): 5.79 µM; GI50 (SW-620 colon): 1420 nM; TGI (SW-620 colon): 3000 nM; GI50 (HOP-62 NSCLC): 17 µM; TGI (HOP-62 NSCLC): 31 µM; GI50 (RXF 393 renal): 1720 nM; TGI (RXF 393 renal): 3.15 µM; GI50 (CAKI-1 renal): 2860 nM; TGI (CAKI-1 renal): 11.6 µM; GI50 (OVCAR-4 ovarian): 1740 nM; TGI (OVCAR-4 ovarian): 3.26 µM; GI50 (NCI-H522 lung): 1740 nM; TGI (NCI-H522 lung): 3.42 µM; GI50 (MCF7 breast): 1630 nM; TGI (MCF7 breast): 3.75 µM; GI50 (786-0 renal): 2330 nM; TGI (786-0 renal): 5.36 µM; GI50 (U251 CNS): 6.96 µM; TGI (U251 CNS): 21.1 µM; GI50 (MALME-3M melanoma): 1830 nM; TGI (MALME-3M melanoma): 3.77 µM; GI50 (EKVX NSCLC): 1780 nM; TGI (EKVX NSCLC): 3.34 µM; GI50 (SK-MEL-2 melanoma): 6.33 µM; TGI (SK-MEL-2 melanoma): 19.2 µM; GI50 (SK-OV-3 ovarian): 12.8 µM; TGI (SK-OV-3 ovarian): 42.9 µM; GI50 (SN12C renal): 4.28 µM; TGI (SN12C renal): 21.9 µM; GI50 (DU-145 prostate): 6.86 µM; TGI (DU-145 prostate): 26.3 µM; GI50 (UACC-257 melanoma): 2050 nM; TGI (UACC-257 melanoma): 4.97 µM; GI50 (HT29 colon): 6.09 µM; TGI (HT29 colon): 21 µM; GI50 (ACHN renal): 1720 nM; TGI (ACHN renal): 3.51 µM; GI50 (HOP-92 NSCLC): 1480 nM; TGI (HOP-92 NSCLC): 2860 nM; GI50 (A498 renal): 13.1 µM; TGI (A498 renal): 26.5 µM; GI50 (OVCAR-8 ovarian): 2660 nM; TGI (OVCAR-8 ovarian): 9.3 µM; GI50 (SK-MEL-28 melanoma): 2600 nM; TGI (SK-MEL-28 melanoma): 6.61 µM; GI50 (KM12 colon): 19 µM; TGI (KM12 colon): 36.4 µM; GI50 (SNB-75 CNS): 10.9 µM; TGI (SNB-75 CNS): 27.9 µM; GI50 (NCI-H226 lung): 12.9 µM; TGI (NCI-H226 lung): 33.3 µM; GI50 (SNB-19 CNS): 14.4 µM; TGI (SNB-19 CNS): 29.5 µM; GI50 (LOX IMVI melanoma): 1570 nM; TGI (LOX IMVI melanoma): 3.02 µM; GI50 (HL-60(TB) leukemia): 1270 nM; TGI (HL-60(TB) leukemia): 3.82 µM; GI50 (M14 melanoma): 2690 nM; TGI (M14 melanoma): 9.36 µM; GI50 (HCT-15 colon): 1710 nM; TGI (HCT-15 colon): 4.05 µM; GI50 (TK-10 renal): 3.96 µM; TGI (TK-10 renal): 8.89 µM; GI50 (OVCAR-5 ovarian): 15 µM; TGI (OVCAR-5 ovarian): 31.5 µM; GI50 (PC-3 prostate): 4.48 µM; TGI (PC-3 prostate): 17.5 µM; GI50 (IGROV1 ovarian): 2530 nM; TGI (IGROV1 ovarian): 6.58 µM; GI50 (NCI-H460 lung): 5.49 µM; TGI (NCI-H460 lung): 21.3 µM; GI50 (UO-31 renal): 1480 nM; TGI (UO-31 renal): 2810 nM; GI50 (HCC-2998 colon): 8.53 µM; TGI (HCC-2998 colon): 22.1 µM; GI50 (HCT-116 colon): 1670 nM; TGI (HCT-116 colon): 3.07 µM; GI50 (BT-549 breast): 3.61 µM; TGI (BT-549 breast): 9.58 µM; GI50 (RPMI-8226 leukemia): 2080 nM; TGI (RPMI-8226 leukemia): 5.47 µM; GI50 (UACC-62 melanoma): 3.49 µM; TGI (UACC-62 melanoma): 13 µM
